System: yeast genes (expressed mRNA)
Assay: DNA chip measurement of expressed mRNA of yeast genes after culture with a toxic chemical substance
Assay type: cell-based, Saccharomyces cerevisiae S288C
Details: for level of expressed mRNA in the presence of chemical substance / level in the absence of chemical substance: cultured two hours with the chemical substance; for The level of expressed mRNA in the presence of chemical substance/The level of expressed mRNA in the absence of chemical substance: cultured two hours with substance
Method in brief: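 Two-hour exposure of growing S. cerevisiae S288C (YPD, 25° C) to a sublethal toxicant preceded RNA isolation. Fluorescent cDNA was hybridized to a whole-genome array; a treated-to-untreated signal ratio of two or more was taken as significant.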

CCCCCCCCCCCCc1ccc(S(=O)(=O)[O-])cc1.[Na+] [(17), Sodium dodecylbenzosulfonate]
level of expressed mRNA in the presence of chemical substance / level in the absence of chemical substance (yeast gene YJL097W): 1.2
The level of expressed mRNA in the presence of chemical substance/The level of expressed mRNA in the absence of chemical substance (yeast gene YJL151C): 3.5
The level of expressed mRNA in the presence of chemical substance/The level of expressed mRNA in the absence of chemical substance (yeast gene YJL152W): 2.5
The level of expressed mRNA in the presence of chemical substance/The level of expressed mRNA in the absence of chemical substance (yeast gene YJL161W): 1.9
The level of expressed mRNA in the presence of chemical substance/The level of expressed mRNA in the absence of chemical substance (yeast gene YJL171C): 3.6
The level of expressed mRNA in the presence of chemical substance/The level of expressed mRNA in the absence of chemical substance (yeast gene YJR008W): 1.5
level of expressed mRNA in the presence of chemical substance / level in the absence of chemical substance (yeast gene YJR030C): 0.7
The level of expressed mRNA in the presence of chemical substance/The level of expressed mRNA in the absence of chemical substance (yeast gene YJR054W): 0.9
level of expressed mRNA in the presence of chemical substance / level in the absence of chemical substance (yeast gene YKL051W): 1.5
The level of expressed mRNA in the presence of chemical substance/The level of expressed mRNA in the absence of chemical substance (yeast gene YKL071W): 1.0
The level of expressed mRNA in the presence of chemical substance/The level of expressed mRNA in the absence of chemical substance (yeast gene YKL086W): 0.9
level of expressed mRNA in the presence of chemical substance / level in the absence of chemical substance (yeast gene YKL097C): 1.1
level of expressed mRNA in the presence of chemical substance / level in the absence of chemical substance (yeast gene YKL100C): 0.7
The level of expressed mRNA in the presence of chemical substance/The level of expressed mRNA in the absence of chemical substance (yeast gene YKL151C): 1.4
The level of expressed mRNA in the presence of chemical substance/The level of expressed mRNA in the absence of chemical substance (yeast gene YKL153W): 0.9
The level of expressed mRNA in the presence of chemical substance/The level of expressed mRNA in the absence of chemical substance (yeast gene YKL195W): 1.4
level of expressed mRNA in the presence of chemical substance / level in the absence of chemical substance (yeast gene YKR040C): 0.7
The level of expressed mRNA in the presence of chemical substance/The level of expressed mRNA in the absence of chemical substance (yeast gene YKR091W): 1.6
The level of expressed mRNA in the presence of chemical substance/The level of expressed mRNA in the absence of chemical substance (yeast gene YLR054C): 1.6
The level of expressed mRNA in the presence of chemical substance/The level of expressed mRNA in the absence of chemical substance (yeast gene YLR149C): 1.3
The level of expressed mRNA in the presence of chemical substance/The level of expressed mRNA in the absence of chemical substance (yeast gene YLR152C): 1.5
The level of expressed mRNA in the presence of chemical substance/The level of expressed mRNA in the absence of chemical substance (yeast gene YLR194C): 1.0
level of expressed mRNA in the presence of chemical substance / level in the absence of chemical substance (yeast gene YLR226W): 1.1
The level of expressed mRNA in the presence of chemical substance/The level of expressed mRNA in the absence of chemical substance (yeast gene YLR324W): 1.2
level of expressed mRNA in the presence of chemical substance / level in the absence of chemical substance (yeast gene YLR338W): 0.8
The level of expressed mRNA in the presence of chemical substance/The level of expressed mRNA in the absence of chemical substance (yeast gene YLR350W): 1.6
The level of expressed mRNA in the presence of chemical substance/The level of expressed mRNA in the absence of chemical substance (yeast gene YLR387C): 1.0
level of expressed mRNA in the presence of chemical substance / level in the absence of chemical substance (yeast gene YLR392C): 0.8
level of expressed mRNA in the presence of chemical substance / level in the absence of chemical substance (yeast gene YLR415C): 0.8
level of expressed mRNA in the presence of chemical substance / level in the absence of chemical substance (yeast gene YLR427W): 1.0
The level of expressed mRNA in the presence of chemical substance/The level of expressed mRNA in the absence of chemical substance (yeast gene YLR460C): 1.0
level of expressed mRNA in the presence of chemical substance / level in the absence of chemical substance (yeast gene YML013W): 1.1
level of expressed mRNA in the presence of chemical substance / level in the absence of chemical substance (yeast gene YML029W): 1.2
level of expressed mRNA in the presence of chemical substance / level in the absence of chemical substance (yeast gene YML041C): 1.3
level of expressed mRNA in the presence of chemical substance / level in the absence of chemical substance (yeast gene YML079W): 1.4
The level of expressed mRNA in the presence of chemical substance/The level of expressed mRNA in the absence of chemical substance (yeast gene YML117W): 1.1
The level of expressed mRNA in the presence of chemical substance/The level of expressed mRNA in the absence of chemical substance (yeast gene YMR009W): 2.7
The level of expressed mRNA in the presence of chemical substance/The level of expressed mRNA in the absence of chemical substance (yeast gene YMR067C): 1.0
level of expressed mRNA in the presence of chemical substance / level in the absence of chemical substance (yeast gene YMR068W): 1.3
level of expressed mRNA in the presence of chemical substance / level in the absence of chemical substance (yeast gene YMR071C): 1.2
The level of expressed mRNA in the presence of chemical substance/The level of expressed mRNA in the absence of chemical substance (yeast gene YMR090W): 1.8
The level of expressed mRNA in the presence of chemical substance/The level of expressed mRNA in the absence of chemical substance (yeast gene YMR095C): 1.0
The level of expressed mRNA in the presence of chemical substance/The level of expressed mRNA in the absence of chemical substance (yeast gene YMR097C): 1.4
The level of expressed mRNA in the presence of chemical substance/The level of expressed mRNA in the absence of chemical substance (yeast gene YMR102C): 2.4
The level of expressed mRNA in the presence of chemical substance/The level of expressed mRNA in the absence of chemical substance (yeast gene YMR107W): 1.3
level of expressed mRNA in the presence of chemical substance / level in the absence of chemical substance (yeast gene YMR160W): 0.9
The level of expressed mRNA in the presence of chemical substance/The level of expressed mRNA in the absence of chemical substance (yeast gene YMR180C): 1.4
The level of expressed mRNA in the presence of chemical substance/The level of expressed mRNA in the absence of chemical substance (yeast gene YMR184W): 1.4
The level of expressed mRNA in the presence of chemical substance/The level of expressed mRNA in the absence of chemical substance (yeast gene YMR191W): 1.2
The level of expressed mRNA in the presence of chemical substance/The level of expressed mRNA in the absence of chemical substance (yeast gene YMR295C): 2.1
The level of expressed mRNA in the presence of chemical substance/The level of expressed mRNA in the absence of chemical substance (yeast gene YMR316W): 6.9
level of expressed mRNA in the presence of chemical substance / level in the absence of chemical substance (yeast gene YNL026W): 1.0
The level of expressed mRNA in the presence of chemical substance/The level of expressed mRNA in the absence of chemical substance (yeast gene YNL044W): 3.1
